According to ChEMBL document CHEMBL1201862, “PubChem BioAssay data set” (2004):
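Cells were grown in 96-well plates and exposed to each compound for 48 hours at five concentrations; endpoints were interpolated linearly between bracketing concentrations, or set to the highest concentration if not reached. Here, GI50 denotes the concentration required for 50% inhibition of growth.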 Activity calls are given as the source filed them. No stated cut-off is given here; in the data, active = GI50 up to about 1.1 µM and inactive = higher.

Assays:
Experiment in all cases: growth of human tumour cells (NCI), 48 h
786-0 = tested on: 786-0
CCRF-CEM = tested on: CCRF-CEM
COLO 205 = tested on: COLO 205
HL-60 = tested on: HL-60
HOP-92 = tested on: HOP-92
IGROV-1 = tested on: IGROV-1
K562 = tested on: K562
MOLT-4 = tested on: MOLT-4
NCI-H460 = tested on: NCI-H460
NCI-H522 = tested on: NCI-H522
NCI/ADR-RES = tested on: NCI/ADR-RES
PC-3 = tested on: PC-3
SF-539 = tested on: SF-539
SK-MEL-28 = tested on: SK-MEL-28
SK-MEL-2 = tested on: SK-MEL-2
SK-OV-3 = tested on: SK-OV-3
SW-620 = tested on: SW-620
TK-10 = tested on: TK-10
UACC-257 = tested on: UACC-257
UACC-62 = tested on: UACC-62

SMILES | GI50 (786-0) | GI50 (CCRF-CEM) | GI50 (COLO 205) | GI50 (HL-60) | GI50 (HOP-92) | GI50 (IGROV-1) | GI50 (K562) | GI50 (MOLT-4) | GI50 (NCI-H460) | GI50 (NCI-H522) | GI50 (NCI/ADR-RES) | GI50 (PC-3) | GI50 (SF-539) | GI50 (SK-MEL-28) | GI50 (SK-MEL-2) | GI50 (SK-OV-3) | GI50 (SW-620) | GI50 (TK-10) | GI50 (UACC-257) | GI50 (UACC-62)
O=C(/C=C/c1ccc(Cl)c(Cl)c1)CCN1CCN(CCC(=O)/C=C/c2ccc(Cl)c(Cl)c2)CC1 | 6.9 µM (inactive) | 6.59 µM (inactive) | 21.8 µM (inactive) | 6.22 µM (inactive) | 22.8 µM (inactive) | 17 µM (inactive) | 22.6 µM (inactive) | 22.3 µM (inactive) | 17.2 µM (inactive) | 8.13 µM (inactive) | 36.9 µM (inactive) | 20.1 µM (inactive) | 14.4 µM (inactive) | 20.4 µM (inactive) | 26.7 µM (inactive) | 45.6 µM (inactive) | 18.2 µM (inactive) | 18 µM (inactive) | 33 µM (inactive) | 19.6 µM (inactive)
CCCCCCOc1ccc(C(=O)NOC)cc1 | > 100 µM (inactive) | > 100 µM (inactive) | > 100 µM (inactive) | 26.9 µM (inactive) | > 100 µM (inactive) | > 100 µM (inactive) | 40.4 µM (inactive) | 24.8 µM (inactive) | > 100 µM (inactive) | > 100 µM (inactive) | > 100 µM (inactive) | 60.1 µM (inactive) | > 100 µM (inactive) | > 100 µM (inactive) | > 100 µM (inactive) | > 100 µM (inactive) | > 100 µM (inactive) | > 100 µM (inactive) | > 100 µM (inactive) | > 100 µM (inactive)
CC(C)(C)OC(=O)N(CCCCNC(=O)c1ccccc1)CCCNC(=O)c1ccccc1 | > 100 µM (inactive) | 72.1 µM (inactive) | > 100 µM (inactive) | 31.4 µM (inactive) | > 100 µM (inactive) | > 100 µM (inactive) | > 100 µM (inactive) | 46.8 µM (inactive) | > 100 µM (inactive) | > 100 µM (inactive) | 68.1 µM (inactive) | 98.6 µM (inactive) | > 100 µM (inactive) | > 100 µM (inactive) | > 100 µM (inactive) | > 100 µM (inactive) | > 100 µM (inactive) | > 100 µM (inactive) | > 100 µM (inactive) | > 100 µM (inactive)
Cc1cccc(NC(=S)N/N=C(/c2ccccc2)c2ccccn2)c1 | 0.948 µM (active) | < 0.01 µM (active) | < 0.0163 µM (active) | < 0.0137 µM (active) | 0.484 µM (active) | < 0.0182 µM (active) | < 0.0135 µM (active) | < 0.0149 µM (active) | 0.159 µM (active) | 1.09 µM (active) | 0.138 µM (active) | < 0.0143 µM (active) | 1.31 µM (inactive) | 1.89 µM (inactive) | 2.49 µM (inactive) | 0.038 µM (active) | < 0.019 µM (active) | 0.117 µM (active) | < 0.0162 µM (active) | 0.267 µM (active)
COc1ccc(/N=C(Nc2ccc(OC)cc2)/C(=N/c2ccc(OC)cc2)Nc2ccc(OC)cc2)cc1 | > 100 µM (inactive) | 36 µM (inactive) | > 100 µM (inactive) | 14.1 µM (inactive) | > 100 µM (inactive) | > 100 µM (inactive) | 15 µM (inactive) | 4.25 µM (inactive) | > 100 µM (inactive) | > 100 µM (inactive) | > 100 µM (inactive) | 3.9 µM (inactive) | > 100 µM (inactive) | > 100 µM (inactive) | > 100 µM (inactive) | > 100 µM (inactive) | > 100 µM (inactive) | > 100 µM (inactive) | > 100 µM (inactive) | > 100 µM (inactive)
COC(=O)C(CBr)CBr | 4.52 µM (inactive) | 0.762 µM (active) | 1.27 µM (inactive) | 0.253 µM (active) | 1.79 µM (inactive) | 10.4 µM (inactive) | 1.57 µM (inactive) | 1.69 µM (inactive) | 14 µM (inactive) | 2.14 µM (inactive) | 3.1 µM (inactive) | 10.2 µM (inactive) | 5.96 µM (inactive) | 3.77 µM (inactive) | 10.8 µM (inactive) | 18.8 µM (inactive) | 1.27 µM (inactive) | 4.79 µM (inactive) | 5.58 µM (inactive) | 9.42 µM (inactive)
